Patent US20160067211A1, “PHARMACEUTICAL COMPOSITION” (Eberhard Karls Universitaet Tuebingen Medizinische Fakultaet, priority 2013, published 2016)

Assays:
[1] = system: BLM melanoma cells; test: PI/Annexin V staining FACS, BLM; assay type: cell-based, human; conditions: 100 μM; for annexin V positive (apoptotic) cells: DMSO control 4.1%; for PI positive (nectrotic) cells: DMSO control 9.1%
Description: (A) Cell cycle FACS analyses of PI stained BLM and SK-MEL-28 melanoma cells. 100 μM of 8-PN-induced a G2 arrest in both cells. (B) FACS analyses of BLM and SK-MEL-28 melanoma cells treated with 100 μM 6-PN or 8-PN and stained for annexin V/PI; staurosporin was used as control for apoptosis induction and DMSO as vehicle control. […] (C) BLM and SK-MEL-28 melanoma cells were treated with 100 μM of PNs; TSA, SAHA and EMSO were used as controls.
To further analyze the possibility of apoptosis induction, an extensive apoptosis assay was performed on SK-MEL-28 melanoma cells 4 hours after treatment with 100 μM 6-PN or 8-PN (FIG. 9). […] This was verified by FACS cell cycle analyses to screen for a possible increase of the sub-G1 fraction of cells (apoptotic cells) or for the induction of a G2 arrest (inhibition of proliferation). […] To further differentiate between the induction of apoptosis and/or necrosis an PI/Annexin V staining of SK-MEL-28 and BLM cells was performed 4 hours and 24 hours after the treatment with 6-PN or 8-PN; 10 μM staurosporin (6 hours treatment) was used as positive control for the induction of apoptosis; DMSO treatment was used as vehicle control. The cells were then analyzed by FACS.

[2] = target: MRP1 (Homo sapiens, UniProt P33527); conditions: cited from earlier work
[3] = system: chicken embryos; test: Embryo toxicity testing in chicken embryos; assay type: in vivo; conditions: 100 μM in ethanol and PBS, after 72 hours
Description: FIG. 11: 6-PN and 8-PN reduce proliferation and invasion of BLM and LOXIMVI melanoma cells in human epidermal skin reconstructs and induce little embryo toxicity. (A) BLM melanoma cells and keratinocytes were seeded on top of a collagen matrix populated by fibroblasts. After 16 days a keratinizing stratified epithelium with a rudimentary corium is formed. […] (B) Similar results were obtained for LOXIMVI melanoma cells under the same treatment conditions. Only nests of dead, MIB1 negative LOXIMVI cells were detected after treatment with the PNs. (C) Chicken embryos stage 13HH (corresponding to 6 human gestational weeks) were exposed to DMSO as control, 100 μM 6-PN or 100 μM 8-PN to determine LD50 values. Survival rates after 24 hours, 48 hours, and 72 hours are depicted in a Kaplan-Meier plot.
Fertilized eggs of leghorn chickens (Gallus gallus domesticus) were incubated at 38° C. in a temperature-controlled, humidified brooder. […]
Due to the detected cytotoxic effects on cancer cells and of melanocytes in vitro, the determination of in vivo embryotoxicity was of great interest. To this end, 2-day chicken embryos were treated for 24, 48 and 72 hours with 100 μM 6-PN or 100 μM 8-PN to monitor survival as readout for lethal embryotoxicity (FIG. 11C). […]

[4] = system: MCF-7 breast cancer cells; test: MUH proliferation assay, MCF-7; assay type: cell-based; conditions: MCF-7, rising concentrations 0.1 μM to 100 μM, 48 hours
Description: FIG. 6: 6-PN and 8-PN inhibit the growth of MCF-7 and HT-29. (A, B) MUH proliferation assay of HT-29 colon cancer cells and MCF-7 breast cancel cells treated with increasing concentrations of 6-PN and 8-PN (0.1 μM to 100 μM) for 48 hours. Shown are the mean±S.A.; the experiments were performed in quadruplicates.
The cells were seeded in triplicates in 96-well plates at a density of 2,500 cells per well in 50 μl medium (5×10^4 cells per milliliter). After 24 hours, the medium was replaced by medium containing 6-PN, 8-PN (dissolved in DMSO), TSA (dissolved in EtOH) or SAHA (dissolved in DMSO) at the concentrations to be tested with or without the addition of the necrosis inhibitor IM-54 at 5 μM (Calbiochem, Darmstadt, Germany). Cells treated with culture medium without or with DMSO served as controls. The assay was started following an incubation of 24 hours. The medium was discarded, each well was washed two times with PBS (without Ca^++ and Mg^++) and 100 μl of a solution containing […] of 4-methyl umbellipheryl heptanoate per ml PBS was added. Plates were incubated at 37° C. for 1 hour and measured in a Fluoroskan II (Lab Systems, Helsinki, Finland) with a […]. The intensity of fluorescence indicates the number of viable cells in the wells. […]

MRP1, sequence (P33527 whole entry): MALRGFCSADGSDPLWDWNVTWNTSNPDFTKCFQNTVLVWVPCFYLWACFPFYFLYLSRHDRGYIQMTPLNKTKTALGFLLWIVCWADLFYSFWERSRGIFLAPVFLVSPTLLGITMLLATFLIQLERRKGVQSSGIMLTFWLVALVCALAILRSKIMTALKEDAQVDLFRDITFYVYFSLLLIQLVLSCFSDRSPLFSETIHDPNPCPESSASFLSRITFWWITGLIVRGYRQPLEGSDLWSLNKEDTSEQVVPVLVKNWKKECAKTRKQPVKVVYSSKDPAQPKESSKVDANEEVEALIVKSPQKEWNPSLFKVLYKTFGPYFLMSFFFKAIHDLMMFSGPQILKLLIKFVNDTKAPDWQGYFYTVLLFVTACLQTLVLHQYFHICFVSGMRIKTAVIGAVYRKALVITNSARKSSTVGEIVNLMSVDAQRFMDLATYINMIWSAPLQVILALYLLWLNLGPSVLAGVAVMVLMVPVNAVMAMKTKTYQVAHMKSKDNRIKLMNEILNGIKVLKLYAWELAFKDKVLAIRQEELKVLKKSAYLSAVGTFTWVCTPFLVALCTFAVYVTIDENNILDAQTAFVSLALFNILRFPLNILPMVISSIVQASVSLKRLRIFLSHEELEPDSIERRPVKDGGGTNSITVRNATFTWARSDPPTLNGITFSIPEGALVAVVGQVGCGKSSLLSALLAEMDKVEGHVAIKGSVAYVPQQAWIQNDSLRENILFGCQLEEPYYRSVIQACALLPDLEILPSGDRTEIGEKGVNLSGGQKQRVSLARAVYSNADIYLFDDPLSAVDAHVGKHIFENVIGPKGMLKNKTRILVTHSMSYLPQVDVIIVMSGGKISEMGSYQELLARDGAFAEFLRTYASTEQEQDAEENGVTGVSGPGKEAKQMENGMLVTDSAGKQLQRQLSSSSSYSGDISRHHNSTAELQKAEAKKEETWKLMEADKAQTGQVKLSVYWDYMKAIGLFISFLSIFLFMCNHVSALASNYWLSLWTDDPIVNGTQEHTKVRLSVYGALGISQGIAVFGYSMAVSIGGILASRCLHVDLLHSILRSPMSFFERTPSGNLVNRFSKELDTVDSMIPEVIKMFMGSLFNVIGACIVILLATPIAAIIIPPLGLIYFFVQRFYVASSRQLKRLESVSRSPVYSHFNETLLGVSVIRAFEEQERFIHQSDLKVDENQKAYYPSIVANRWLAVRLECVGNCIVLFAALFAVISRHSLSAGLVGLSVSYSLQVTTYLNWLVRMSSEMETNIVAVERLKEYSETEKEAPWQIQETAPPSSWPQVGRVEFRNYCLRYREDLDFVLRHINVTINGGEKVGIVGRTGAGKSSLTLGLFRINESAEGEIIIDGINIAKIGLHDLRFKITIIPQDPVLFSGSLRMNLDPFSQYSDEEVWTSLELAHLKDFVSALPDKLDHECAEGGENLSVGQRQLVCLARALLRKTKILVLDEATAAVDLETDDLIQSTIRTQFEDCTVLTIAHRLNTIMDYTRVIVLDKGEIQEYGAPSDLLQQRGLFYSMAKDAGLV

Q: Which “annexin V positive (apoptotic) cells” value ([1]; 4 hours) does the source give for `CC(C)=CCc1c(O)cc(O)c2c1OC(c1ccc(O)cc1)CC2=O` (stereo not shown) [8-PN, 5,7-Dihydroxy-2-(4-hydroxy-phenyl)-8-(3-methyl-but-2-enyl)-chroman-4-one] here?
A: The value was 1.2%.

Q: What about the “PI positive (nectrotic) cells” value ([1]; 4 hours) of the same compound?
A: The value was 27%.

Q: What about the “annexin V positive (apoptotic) cells” value ([1]; 24 hours) of the same compound?
A: The value was 5.9%.

Q: What about the “PI positive (nectrotic) cells” value ([1]; 24 hours) of the same compound?
A: Its value is 22.4%.

Q: What about the “inhibition of MRP1” value [2] of the same compound?
A: The value was “inhibition”.

Q: And the embryos survived [3]?
A: The embryos survived was 8/10.

Q: And the cell proliferation [4]?
A: The cell proliferation was “severe reduction”.
